Measured values taken from PubChem BioAssay (NCI).
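GI50 is the concentration that inhibits growth by half. TGI is the concentration that stops growth completely.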

Key:
Assay in all cases: DTP human tumour cell line panel, 384-well format
PC-3 prostate = tested on: PC-3 prostate
OVCAR-3 ovarian = tested on: OVCAR-3 ovarian
MCF7 breast = tested on: MCF7 breast
MDA-MB-231 breast = tested on: MDA-MB-231 breast
ACHN renal = tested on: ACHN renal
MDA-MB-435 melanoma = tested on: MDA-MB-435 melanoma
CAKI-1 renal = tested on: CAKI-1 renal
EKVX NSCLC = tested on: EKVX NSCLC
SK-MEL-5 melanoma = tested on: SK-MEL-5 melanoma
OVCAR-8 ovarian = tested on: OVCAR-8 ovarian
UACC-257 melanoma = tested on: UACC-257 melanoma
SF-539 CNS = tested on: SF-539 CNS
OVCAR-5 ovarian = tested on: OVCAR-5 ovarian

Cc1cc(Nc2cc(N)ncn2)c(=O)n2c1C(=O)NC21CCCCC1
GI50 (PC-3 prostate): > 100 µM
TGI (PC-3 prostate): > 100 µM
GI50 (OVCAR-3 ovarian): > 100 µM
TGI (OVCAR-3 ovarian): > 100 µM
GI50 (MCF7 breast): > 100 µM
TGI (MCF7 breast): > 100 µM
GI50 (MDA-MB-231 breast): > 100 µM
TGI (MDA-MB-231 breast): > 100 µM
GI50 (ACHN renal): > 100 µM
TGI (ACHN renal): > 100 µM
GI50 (MDA-MB-435 melanoma): > 100 µM
TGI (MDA-MB-435 melanoma): > 100 µM
GI50 (CAKI-1 renal): > 100 µM
TGI (CAKI-1 renal): > 100 µM
GI50 (EKVX NSCLC): > 100 µM
TGI (EKVX NSCLC): > 100 µM
GI50 (SK-MEL-5 melanoma): > 100 µM
TGI (SK-MEL-5 melanoma): > 100 µM
GI50 (OVCAR-8 ovarian): > 100 µM
TGI (OVCAR-8 ovarian): > 100 µM
GI50 (UACC-257 melanoma): > 100 µM
TGI (UACC-257 melanoma): > 100 µM
GI50 (SF-539 CNS): > 100 µM
TGI (SF-539 CNS): > 100 µM
GI50 (OVCAR-5 ovarian): > 100 µM
TGI (OVCAR-5 ovarian): > 100 µM
